# Test results reported in US20150087627A1, “COMBINATION OF KINASE INHIBITORS AND USES THEREOF” (Intellikine LLC, priority 2011, published 2015).
# pIC50: −log10 of the molar value. Read-outs that look alike come from different tables or passages of the source.
# Key:
# Format in all cases: biochemical
# PI3K β (p110β/p85α) = molecular target: T1, PI3K β (p110β/p85α) (Homo sapiens, UniProt P42338); assay: PI 3-Kinase (human) HTRF assay, PI3K β; conditions: read-out: PI3K β IC50
# T1 construct: purchased Upstate / Millipore Corporation
# Procedure: Briefly, the assay is a time resolved FRET assay that indirectly measures PIP3 product formed by the activity of a PI3-K. The kinase reaction is performed in a microtiter plate (e.g., a 384 well microtiter plate). The total reaction volume is approximately 20 ul per well. In the first step, each well receives 2 ul of test compound in 20% dimethylsulphoxide resulting in a 2% DMSO final concentration. […] The plate is sealed and incubated for 15 minutes at room temperature. […] The plate is sealed and incubated for 1 hour at room temperature. The reaction is stopped by adding 5 ul of Stop Solution per well and then 5 ul of Detection Mix is added per well. The plate is sealed, incubated for 1 hour at room temperature, and then read on an appropriate plate reader. Data is analyzed and IC50s are generated using GraphPad Prism 5.
# PI3K γ (p110γ) = molecular target: T2, PI3K γ (p110γ) (Homo sapiens, UniProt P48736); assay: PI 3-Kinase (human) HTRF assay, PI3K γ; conditions: for pIC50: read-out: PI3K γ IC50
# T2 construct: purchased Upstate / Millipore Corporation
# PI3K α (p110α/p85α) = molecular target: T3, PI3K α (p110α/p85α) (Homo sapiens, UniProt P42336); assay: PI 3-Kinase (human) HTRF assay, PI3K α; conditions: read-out: PI3K α IC50
# T3 construct: purchased Upstate / Millipore Corporation
# PI3K δ = molecular target: T4, PI3K δ (Homo sapiens, UniProt O00329); assay: PI 3-Kinase (human) HTRF assay, PI3K δ
# T4 construct: purchased Upstate / Millipore Corporation
# T4 sequence (O00329 whole entry): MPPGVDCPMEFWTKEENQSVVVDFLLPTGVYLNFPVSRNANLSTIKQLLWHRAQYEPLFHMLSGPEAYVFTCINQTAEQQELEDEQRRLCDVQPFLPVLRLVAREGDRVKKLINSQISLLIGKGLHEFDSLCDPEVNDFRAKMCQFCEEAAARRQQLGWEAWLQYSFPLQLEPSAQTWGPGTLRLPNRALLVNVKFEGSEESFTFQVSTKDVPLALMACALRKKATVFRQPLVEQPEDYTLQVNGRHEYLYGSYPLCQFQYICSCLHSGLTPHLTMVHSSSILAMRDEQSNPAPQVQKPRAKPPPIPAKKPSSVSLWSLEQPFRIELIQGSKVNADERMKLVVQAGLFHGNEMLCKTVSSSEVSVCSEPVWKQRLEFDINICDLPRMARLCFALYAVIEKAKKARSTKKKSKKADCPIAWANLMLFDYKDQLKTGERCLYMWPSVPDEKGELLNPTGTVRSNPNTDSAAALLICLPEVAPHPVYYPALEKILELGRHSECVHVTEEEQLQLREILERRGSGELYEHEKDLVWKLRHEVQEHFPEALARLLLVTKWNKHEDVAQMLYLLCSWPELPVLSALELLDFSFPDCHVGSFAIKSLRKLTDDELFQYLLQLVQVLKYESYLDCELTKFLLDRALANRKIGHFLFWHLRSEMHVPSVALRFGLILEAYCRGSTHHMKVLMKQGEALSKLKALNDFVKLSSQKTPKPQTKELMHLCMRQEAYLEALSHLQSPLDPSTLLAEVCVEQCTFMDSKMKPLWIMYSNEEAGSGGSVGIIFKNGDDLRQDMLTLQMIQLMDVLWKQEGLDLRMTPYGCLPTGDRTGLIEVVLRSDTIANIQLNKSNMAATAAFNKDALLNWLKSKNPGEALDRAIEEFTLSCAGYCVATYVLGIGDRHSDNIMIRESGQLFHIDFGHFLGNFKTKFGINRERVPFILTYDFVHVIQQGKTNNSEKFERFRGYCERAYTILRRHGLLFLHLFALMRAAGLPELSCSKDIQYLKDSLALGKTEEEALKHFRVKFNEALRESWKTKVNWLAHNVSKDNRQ
# T4 sequence (P27986 whole entry partner): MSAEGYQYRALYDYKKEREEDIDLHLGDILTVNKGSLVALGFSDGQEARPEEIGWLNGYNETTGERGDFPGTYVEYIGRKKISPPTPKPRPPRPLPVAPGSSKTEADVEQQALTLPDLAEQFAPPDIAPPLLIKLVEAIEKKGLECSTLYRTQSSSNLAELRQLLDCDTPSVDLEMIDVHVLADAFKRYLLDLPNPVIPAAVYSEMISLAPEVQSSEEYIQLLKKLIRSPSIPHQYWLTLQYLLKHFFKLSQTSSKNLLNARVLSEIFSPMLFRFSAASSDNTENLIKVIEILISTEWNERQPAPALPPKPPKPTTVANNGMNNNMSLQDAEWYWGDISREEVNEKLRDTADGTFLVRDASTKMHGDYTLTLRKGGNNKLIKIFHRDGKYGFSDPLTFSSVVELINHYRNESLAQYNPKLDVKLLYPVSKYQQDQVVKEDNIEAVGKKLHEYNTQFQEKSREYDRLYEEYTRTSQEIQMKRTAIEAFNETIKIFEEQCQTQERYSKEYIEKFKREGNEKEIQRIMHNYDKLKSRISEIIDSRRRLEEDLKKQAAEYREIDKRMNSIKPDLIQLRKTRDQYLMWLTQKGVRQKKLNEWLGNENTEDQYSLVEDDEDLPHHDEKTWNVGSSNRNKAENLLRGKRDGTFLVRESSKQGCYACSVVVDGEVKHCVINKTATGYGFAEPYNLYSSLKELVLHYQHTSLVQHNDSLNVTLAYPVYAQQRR
# T2 sequence (P48736 whole entry): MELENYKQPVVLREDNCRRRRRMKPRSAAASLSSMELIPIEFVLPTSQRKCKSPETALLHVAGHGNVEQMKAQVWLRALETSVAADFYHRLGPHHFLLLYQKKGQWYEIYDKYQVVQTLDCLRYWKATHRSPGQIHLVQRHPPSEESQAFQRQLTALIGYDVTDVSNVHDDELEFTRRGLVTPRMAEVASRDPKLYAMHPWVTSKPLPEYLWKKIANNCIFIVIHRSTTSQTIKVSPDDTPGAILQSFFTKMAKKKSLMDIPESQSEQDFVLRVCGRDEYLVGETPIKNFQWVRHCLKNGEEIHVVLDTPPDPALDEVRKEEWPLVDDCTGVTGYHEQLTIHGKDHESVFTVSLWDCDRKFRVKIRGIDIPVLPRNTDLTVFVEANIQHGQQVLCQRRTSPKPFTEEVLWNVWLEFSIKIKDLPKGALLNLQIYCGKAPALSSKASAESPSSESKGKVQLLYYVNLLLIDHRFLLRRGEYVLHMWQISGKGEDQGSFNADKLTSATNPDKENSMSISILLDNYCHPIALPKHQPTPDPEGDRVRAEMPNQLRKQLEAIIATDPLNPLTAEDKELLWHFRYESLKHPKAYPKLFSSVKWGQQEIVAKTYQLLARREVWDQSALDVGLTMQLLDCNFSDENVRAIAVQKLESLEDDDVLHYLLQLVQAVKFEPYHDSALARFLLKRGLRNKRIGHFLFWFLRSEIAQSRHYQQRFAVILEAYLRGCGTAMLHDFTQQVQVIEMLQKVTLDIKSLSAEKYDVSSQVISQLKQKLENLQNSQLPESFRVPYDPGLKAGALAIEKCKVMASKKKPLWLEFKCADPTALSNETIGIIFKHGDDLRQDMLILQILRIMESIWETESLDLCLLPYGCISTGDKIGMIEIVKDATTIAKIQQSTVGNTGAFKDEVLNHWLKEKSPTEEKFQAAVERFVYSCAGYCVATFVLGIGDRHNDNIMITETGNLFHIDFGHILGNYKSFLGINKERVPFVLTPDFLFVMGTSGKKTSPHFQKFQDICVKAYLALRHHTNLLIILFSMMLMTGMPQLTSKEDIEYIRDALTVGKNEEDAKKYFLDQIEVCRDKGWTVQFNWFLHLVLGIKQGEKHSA
# T3 sequence (P42336 whole entry): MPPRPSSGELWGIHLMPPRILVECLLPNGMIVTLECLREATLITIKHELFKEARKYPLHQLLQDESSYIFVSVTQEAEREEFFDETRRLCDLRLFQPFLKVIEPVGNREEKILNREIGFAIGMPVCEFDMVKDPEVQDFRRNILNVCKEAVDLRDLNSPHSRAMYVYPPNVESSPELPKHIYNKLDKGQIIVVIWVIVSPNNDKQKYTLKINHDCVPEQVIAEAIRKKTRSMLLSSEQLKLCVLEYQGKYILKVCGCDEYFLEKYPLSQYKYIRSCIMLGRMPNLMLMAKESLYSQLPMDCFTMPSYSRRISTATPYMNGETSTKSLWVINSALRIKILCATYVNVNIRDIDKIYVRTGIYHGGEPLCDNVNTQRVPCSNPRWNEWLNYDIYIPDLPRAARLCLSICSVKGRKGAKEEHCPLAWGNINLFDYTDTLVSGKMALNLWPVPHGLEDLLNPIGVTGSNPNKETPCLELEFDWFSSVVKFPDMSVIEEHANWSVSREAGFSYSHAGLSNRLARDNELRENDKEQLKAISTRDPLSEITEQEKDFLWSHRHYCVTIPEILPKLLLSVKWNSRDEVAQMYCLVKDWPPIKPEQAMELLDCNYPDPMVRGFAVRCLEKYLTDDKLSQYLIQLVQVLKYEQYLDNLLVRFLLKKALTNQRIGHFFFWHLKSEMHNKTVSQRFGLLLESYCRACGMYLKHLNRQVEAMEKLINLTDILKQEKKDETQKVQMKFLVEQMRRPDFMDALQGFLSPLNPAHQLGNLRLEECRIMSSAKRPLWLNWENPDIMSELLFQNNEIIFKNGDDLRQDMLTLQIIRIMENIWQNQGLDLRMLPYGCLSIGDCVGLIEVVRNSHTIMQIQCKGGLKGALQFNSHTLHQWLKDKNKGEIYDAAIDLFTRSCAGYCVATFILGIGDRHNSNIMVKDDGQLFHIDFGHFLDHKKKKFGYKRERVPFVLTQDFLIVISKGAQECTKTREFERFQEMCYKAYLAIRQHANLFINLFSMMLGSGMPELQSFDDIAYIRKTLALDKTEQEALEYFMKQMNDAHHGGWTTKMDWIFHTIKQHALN
# T3 sequence (P27986 whole entry partner): as the sequence (P27986 whole entry partner) above
# T1 sequence (P42338 whole entry): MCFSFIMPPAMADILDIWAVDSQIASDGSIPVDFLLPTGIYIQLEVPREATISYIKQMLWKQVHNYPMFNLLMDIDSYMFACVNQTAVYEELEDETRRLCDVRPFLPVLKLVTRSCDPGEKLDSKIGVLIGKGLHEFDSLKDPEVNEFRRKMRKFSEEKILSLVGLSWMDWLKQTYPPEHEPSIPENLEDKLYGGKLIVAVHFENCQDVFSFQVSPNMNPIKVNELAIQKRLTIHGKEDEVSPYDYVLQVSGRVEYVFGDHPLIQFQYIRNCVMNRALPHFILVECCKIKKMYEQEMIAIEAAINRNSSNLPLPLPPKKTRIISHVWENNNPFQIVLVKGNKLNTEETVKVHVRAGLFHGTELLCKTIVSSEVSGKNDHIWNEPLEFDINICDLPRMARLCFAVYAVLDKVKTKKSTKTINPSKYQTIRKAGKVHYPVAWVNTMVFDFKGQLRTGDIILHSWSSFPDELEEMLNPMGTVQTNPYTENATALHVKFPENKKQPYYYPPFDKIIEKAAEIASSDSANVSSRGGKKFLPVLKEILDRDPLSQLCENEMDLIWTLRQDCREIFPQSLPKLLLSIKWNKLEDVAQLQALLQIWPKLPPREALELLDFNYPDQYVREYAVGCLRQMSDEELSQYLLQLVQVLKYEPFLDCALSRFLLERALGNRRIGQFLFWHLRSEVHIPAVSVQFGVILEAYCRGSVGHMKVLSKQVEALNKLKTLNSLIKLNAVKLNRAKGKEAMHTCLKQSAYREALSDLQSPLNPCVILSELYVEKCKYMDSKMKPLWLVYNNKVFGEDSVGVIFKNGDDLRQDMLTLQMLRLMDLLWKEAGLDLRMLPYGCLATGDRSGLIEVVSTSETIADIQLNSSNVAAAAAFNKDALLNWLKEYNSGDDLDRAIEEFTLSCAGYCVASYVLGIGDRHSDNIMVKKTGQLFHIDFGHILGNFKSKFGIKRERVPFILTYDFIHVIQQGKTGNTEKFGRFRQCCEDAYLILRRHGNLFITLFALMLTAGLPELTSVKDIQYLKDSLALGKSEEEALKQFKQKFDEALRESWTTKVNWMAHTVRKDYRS
# T1 sequence (P27986 whole entry partner): as the sequence (P27986 whole entry partner) above
Structure (SMILES),pIC50 (PI3K β (p110β/p85α)),pIC50 (PI3K γ (p110γ)),pIC50 (PI3K α (p110α/p85α)),pIC50 (PI3K δ; read-out: PI3K δ IC50),pIC50 (PI3K β (p110β/p85α); Table 4 (PI3K α inhibitors)),pIC50 (PI3K γ (p110γ); Table 4 (PI3K α inhibitors)),pIC50 (PI3K α (p110α/p85α); Table 4 (PI3K α inhibitors)),"pIC50 (PI3K δ; Table 4 (PI3K α inhibitors), read-out: PI3K δ IC50)",IC50 (PI3K γ (p110γ); PI3K γ IC50 (nM)),pIC50 (PI3K δ)
Nc1nsc2c(-c3ccc4ncc(C(=O)N5CCOCC5)n4c3)cccc12 [Compound 474],< 5.00,< 5.00,> 5.00,< 5.00,–,–,–,–,–,–
Nc1nc2cc(-c3ccc4ncc(-c5ccncc5)nc4c3)ccc2o1 [Compound 71],> 5.00,> 7.00,> 7.00,> 6.00,–,–,–,–,–,–
Cc1c(-c2ccc3oc(N)nc3c2)ccc2ncc(N3CCN[C@@H](C)C3)nc12 [Compound 374],> 7.00,< 5.00,> 6.00,> 5.00,–,–,–,–,–,–
Cc1cc(-c2ccc3nc(N)oc3c2)cn2c(CN3CCN(C)CC3)nnc12 [Compound 549],< 5.00,< 5.00,< 5.00,< 5.00,–,–,–,–,–,–
C[C@@H](N)C(=O)N1CCN(c2cnc3ccc(-c4ccc5oc(N)nc5c4)nc3c2)CC1 [Compound 590],–,–,–,–,> 7.00,> 6.00,> 7.00,> 6.00,–,–
CC(C)N1CCC(n2cnc3ccc(-c4cncc(NS(C)(=O)=O)c4)cc3c2=O)CC1 [Compound 520],< 5.00,< 5.00,< 5.00,< 5.00,–,–,–,–,–,–
Nc1nc2cc(-c3ccc4ncc(C(=O)N5CCOCC5)n4n3)ccc2o1 [Compound 105],> 5.00,> 6.00,> 6.00,< 5.00,–,–,–,–,–,–
Nc1nc2cc(-c3ccc4ncn(CCCN5CCCC5)c(=O)c4c3)ccc2o1 [Compound 271],> 5.00,< 5.00,> 6.00,> 5.00,–,–,–,–,–,–
CN1CCC(N(C)c2ncnc3ccc(-c4ccc5oc(N)nc5c4)cc23)CC1 [Compound 155],> 7.00,–,> 7.00,–,–,–,–,–,< 100 nM,> 6.00
Nc1noc2cc(-c3ccc4ncc(C(=O)N5CCOCC5)n4c3)ccc12 [Compound 488],< 5.00,< 5.00,< 5.00,< 5.00,–,–,–,–,–,–
CNS(=O)(=O)c1cncc(-c2ccc3ncc(C(=O)N4CCOCC4)n3c2)c1 [Compound 450],< 5.00,< 5.00,> 5.00,< 5.00,–,–,–,–,–,–
Nc1nc2ccc(-c3ccc4ncc(N5CCOCC5)nc4c3)cc2s1 [Compound 114],< 5.00,> 6.00,> 7.00,< 5.00,–,–,–,–,–,–
Nc1nc2cc(-c3ccc4ncc(C(=O)N5CCC(F)(F)CC5)n4c3)ccc2o1 [Compound 501],< 5.00,> 5.00,> 6.00,< 5.00,–,–,–,–,–,–
CC(C)(C#N)c1ccc(Nc2ncnc3ccc(-c4ccc5oc(N)nc5c4)cc23)cc1 [Compound 102],> 6.00,> 7.00,> 7.00,> 6.00,–,–,–,–,–,–
CCN1CCN(C(=O)c2cnc3ccc(-c4ccc5oc(N)nc5c4)cn23)CC1 [Compound 141],< 5.00,> 5.00,> 6.00,< 5.00,–,–,–,–,–,–
C[C@@H]1CN(c2cnc3ccc(-c4ccc5oc(N)nc5c4)cc3n2)C[C@H](C)O1 [Compound 132],< 5.00,> 5.00,> 6.00,< 5.00,–,–,–,–,–,–
CN1CCCN(C(=O)c2cnc3ccc(-c4ccc5oc(N)nc5c4)cn23)CC1 [Compound 140],> 5.00,< 5.00,> 6.00,< 5.00,–,–,–,–,–,–
CCN(CC)CCCNC(=O)c1cnc2ccc(-c3ccc4oc(N)nc4c3)cn12 [Compound 302],> 5.00,> 5.00,> 6.00,> 7.00,–,–,–,–,–,–
Nc1nc2cc(-c3ccc4ncc(C(=O)N5CC(N6CC[C@H](O)C6)C5)n4c3)ccc2o1 [Compound 469],> 5.00,> 6.00,> 7.00,> 5.00,–,–,–,–,–,–

Structure (SMILES),pIC50 (PI3K β (p110β/p85α)),pIC50 (PI3K γ (p110γ)),pIC50 (PI3K α (p110α/p85α)),pIC50 (PI3K δ; read-out: PI3K δ IC50),pIC50 (PI3K β (p110β/p85α); Table 4 (PI3K α inhibitors)),pIC50 (PI3K γ (p110γ); Table 4 (PI3K α inhibitors)),pIC50 (PI3K α (p110α/p85α); Table 4 (PI3K α inhibitors)),"pIC50 (PI3K δ; Table 4 (PI3K α inhibitors), read-out: PI3K δ IC50)",IC50 (PI3K γ (p110γ); PI3K γ IC50 (nM)),pIC50 (PI3K δ)
CNC(=O)CN1CCN(c2cnc3ccc(-c4ccc5oc(N)nc5c4)cc3n2)CC1 [Compound 120],> 6.00,< 5.00,> 7.00,> 5.00,–,–,–,–,–,–
Cc1ccn(C2CCN(c3cnc4ccc(-c5ccc6oc(N)nc6c5)cc4n3)CC2)n1 [Compound 223],< 5.00,> 6.00,> 7.00,< 5.00,–,–,–,–,–,–
COc1ncc(-c2ccc3ncc(C(=O)N4CCOCC4)n3c2)cc1NS(C)(=O)=O [Compound 416],> 5.00,> 6.00,> 7.00,> 5.00,–,–,–,–,–,–
COc1ncc(-c2ccc3ncc(C(=O)N4CCOCC4)n3c2)c2cn[nH]c12 [Compound 517],< 5.00,> 5.00,> 6.00,> 5.00,–,–,–,–,–,–
Nc1nc2cc(-c3ccc4sc(N)nc4c3)cc(F)c2o1 [Compound 437],> 6.00,> 6.00,> 5.00,< 5.00,–,–,–,–,–,–
Nc1nc2cc(-c3ccc4ncc(C(=O)N5CC(N6CCOCC6)C5)n4c3)ccc2o1 [Compound 266],> 5.00,> 6.00,> 7.00,> 6.00,–,–,–,–,–,–
Cc1cc(-c2ccc3nc(N)oc3c2)cn2c(C(=O)N3CCOCC3)cnc12 [Compound 449],> 6.00,> 7.00,> 6.00,< 5.00,–,–,–,–,–,–
CN1CCN(C(=O)c2cnc3cnc(-c4ccc5oc(N)nc5c4)cn23)CC1 [Compound 123],< 5.00,< 5.00,> 5.00,< 5.00,–,–,–,–,–,–
Nc1nc2cc(-c3ccc4ncc(C(=O)N5CCC(F)(F)C5)n4c3)ccc2o1 [Compound 471],< 5.00,> 7.00,> 7.00,< 5.00,–,–,–,–,–,–
Nc1nc2cc(-c3ccc4ncn(C(=O)N5CCOCC5)c4c3)ccc2o1 [Compound 317],< 5.00,< 5.00,< 5.00,< 5.00,–,–,–,–,–,–
Nc1nc2cc(-c3ccc4ncc(C(=O)NCCCN5CCCC5)n4c3)ccc2o1 [Compound 293],> 6.00,> 6.00,> 7.00,> 7.00,–,–,–,–,–,–
CCn1cnc2ccc(-c3ccc4oc(N)nc4c3)cc2c1=O [Compound 183],> 5.00,> 7.00,> 7.00,> 5.00,–,–,–,–,–,–
Nc1nc2cc(-c3ccc4ncc(C(=O)N5CCC(N6CCOCC6)CC5)n4c3)ccc2o1 [Compound 163],> 5.00,> 5.00,> 6.00,> 5.00,–,–,–,–,–,–
Nc1nc2cc(-c3ccc4ncc(N5CCN(CCO)CC5)nc4c3)ccc2o1 [Compound 100],> 7.00,> 6.00,> 7.00,> 5.00,–,–,–,–,–,–
Nc1nc2cc(-c3ccc4ncc(N5CCN(C(=O)C6(N)CC6)CC5)nc4c3)ccc2o1 [Compound 226],< 5.00,> 5.00,> 6.00,> 5.00,–,–,–,–,–,–
Nc1nc2ccc(-c3ccc4nc(N)sc4c3)cc2o1 [Compound 243],> 7.00,> 7.00,> 6.00,< 5.00,–,–,–,–,–,–
Nc1nc2cc(-c3ccc4ncc(N5CCNC(C(F)F)C5)nc4c3)ccc2o1 (centres unmarked) [Compound 413],> 6.00,> 6.00,> 7.00,> 5.00,–,–,–,–,–,–
Nc1nc2ccc(-c3ccc4sc(N)nc4c3)cc2o1 [Compound 249],> 7.00,> 7.00,> 7.00,> 6.00,–,–,–,–,–,–
Nc1nc2cc(-c3ccc4ncc(N5CC(N6CCS(=O)(=O)CC6)C5)nc4c3)ccc2o1 [Compound 334],> 5.00,> 5.00,> 7.00,> 5.00,–,–,–,–,–,–
